Experimental data published in patent US6737383B1, “Herbicidal oxadiazolidines” (priority 1999, dated 2004).

How the values were obtained:
cocklebur = test: Test B pre/postemergence cocklebur; assay type: in vivo, Xanthium strumarium
In short: (§1)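 Response is a visual 0-to-10 score relative to untreated plants, where 0 means no effect and 10 means complete control, taken twelve to sixteen days after application. Treatments went onto soil at planting and onto foliage of 1- to 4-leaf plants, using a surfactant-containing non-phytotoxic solvent.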

corn = test: Test B pre/postemergence corn; assay type: in vivo, Zea mays
In short: as §1

crabgrass = test: Test B pre/postemergence crabgrass; assay type: in vivo, Digitaria sanguinalis
In short: as §1

giant foxtail = test: Test B pre/postemergence giant foxtail; assay type: in vivo, Setaria faberii
In short: as §1

morningglory = test: Test B pre/postemergence morningglory; assay type: in vivo, Ipomoea hederacea
In short: as §1

pigweed = test: Test B pre/postemergence pigweed; assay type: in vivo, Amaranthus retroflexus
In short: as §1

rape = test: Test B pre/postemergence rape; assay type: in vivo, Brassica napus
In short: as §1

soybean = test: Test B pre/postemergence soybean; assay type: in vivo, Glycine max
In short: as §1

sugar beet = test: Test B pre/postemergence sugar beet; assay type: in vivo, Beta vulgaris
In short: as §1

velvetleaf = test: Test B pre/postemergence velvetleaf; assay type: in vivo, Abutilon theophrasti
In short: as §1

wheat = test: Test B pre/postemergence wheat; assay type: in vivo, Triticum aestivum
In short: as §1

wild oat = test: Test B pre/postemergence wild oat; assay type: in vivo, Avena fatua
In short: as §1

purple nutsedge = test: Test B pre/postemergence purple nutsedge; assay type: in vivo, Cyperus rotundus
In short: as §1

rice = test: Test B flood test rice; assay type: in vivo, Oryza sativa
In short: (§2)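 Each value is a visual injury score relative to controls, with 10 meaning complete control and 0 no effect. Evaluation took place twelve to sixteen days after the 2-leaf-stage plants were treated and kept in the greenhouse.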

smallflower flatsedge = test: Test B flood test smallflower flatsedge; assay type: in vivo, Cyperus difformis
In short: as §2

duck salad = test: Test B flood test duck salad; assay type: in vivo, Heteranthera limosa
In short: as §2

[1] = Preemergence, Rate 62 g/ha, scale of 0 to 10 where 0 is no effect and 10 is complete control
[2] = Preemergence, Rate 250 g/ha, scale of 0 to 10 where 0 is no effect and 10 is complete control
[3] = Preemergence, Rate 500 g/ha, scale of 0 to 10 where 0 is no effect and 10 is complete control
[4] = Rate 62 g/ha, Postemergence, scale 0 to 10, 0 no effect, 10 complete control
[5] = Rate 125 g/ha, Postemergence, scale of 0 to 10 where 0 is no effect and 10 is complete control
[6] = Rate 250 g/ha, Postemergence, scale of 0 to 10 where 0 is no effect and 10 is complete control
[7] = Rate 500 g/ha, Postemergence, scale 0 to 10, 0 no effect, 10 complete control
[8] = Rate 62 g/ha, headed Pre-emergence (flood test species), scale 0 to 10 (0 no effect, 10 complete control)
[9] = Rate 125 g/ha, Pre-emergence, flood test species, scale 0 to 10 where 0 is no effect and 10 is complete control
[10] = Rate 250 g/ha, Pre-emergence, flood-test species, scale 0 to 10, 0 is no effect, 10 is complete control
[11] = Rate 500 g/ha, Pre-emergence, flood test species, scale 0 to 10 (0 no effect, 10 complete control)

CC(C)N(C(=O)n1oc(=O)n(C2CC2)c1=O)c1ccc(F)cc1F [Compound 299]
Cocklebur plant response rating (cocklebur; [1]): 0 | Cocklebur plant response rating (0 to 10 scale) (cocklebur; Preemergence, Rate 125 g/ha): 0 | Cocklebur plant response rating (cocklebur; [2]): 0 | Cocklebur plant response rating (cocklebur; [3]): 0 | Cocklebur plant response rating (cocklebur; [4]): 0 | Cocklebur plant response rating (cocklebur; [5]): 2 | Plant response rating, Cocklebur (cocklebur; [6]): 4 | Cocklebur plant response rating (cocklebur; [7]): 5 | Corn plant response rating (corn; [1]): 0 | Corn plant response rating (0 to 10 scale) (corn; Preemergence, Rate 125 g/ha): 0 | Corn plant response rating (corn; [2]): 8 | Corn plant response rating (corn; [3]): 8 | Corn plant response rating (corn; [4]): 0 | Corn plant response rating (corn; [5]): 0 | Plant response rating, Corn (corn; [6]): 3 | Corn plant response rating (corn; [7]): 4 | Crabgrass plant response rating (crabgrass; [1]): 6 | Crabgrass plant response rating (0 to 10 scale) (crabgrass; Preemergence, Rate 125 g/ha): 9 | Crabgrass plant response rating (crabgrass; [2]): 9 | Crabgrass plant response rating (crabgrass; [3]): 9 | Crabgrass plant response rating (crabgrass; [4]): 0 | Crabgrass plant response rating (crabgrass; [5]): 3 | Plant response rating, Crabgrass (crabgrass; [6]): 4 | Giant foxtail plant response rating (giant foxtail; [1]): 9 | Giant foxtail plant response rating (0 to 10 scale) (giant foxtail; Preemergence, Rate 125 g/ha): 10 | Giant foxtail plant response rating (giant foxtail; [2]): 10 | Giant foxtail plant response rating (giant foxtail; [3]): 10 | Giant foxtail plant response rating (giant foxtail; [4]): 7 | Giant foxtail plant response rating (giant foxtail; [5]): 7 | Plant response rating, Giant foxtail (giant foxtail; [6]): 8 | Morningglory plant response rating (morningglory; [1]): 0 | Morningglory plant response rating (0 to 10 scale) (morningglory; Preemergence, Rate 125 g/ha): 2 | Morningglory plant response rating (morningglory; [2]): 6 | Morningglory plant response rating (morningglory; [3]): 7 | Morningglory plant response rating (morningglory; [4]): 3 | Morningglory plant response rating (morningglory; [5]): 5 | Plant response rating, Morningglory (morningglory; [6]): 6 | Redroot pigweed plant response rating (pigweed; [1]): 9 | Redroot pigweed plant response rating (0 to 10 scale) (pigweed; Preemergence, Rate 125 g/ha): 10 | Redroot pigweed plant response rating (pigweed; [2]): 10 | Redroot pigweed plant response rating (pigweed; [3]): 10 | Redroot pigweed plant response rating (pigweed; [4]): 2 | Redroot pigweed plant response rating (pigweed; [5]): 3 | Plant response rating, Redroot pigweed (pigweed; [6]): 6 | Rape plant response rating (rape; [1]): 1 | Rape plant response rating (0 to 10 scale) (rape; Preemergence, Rate 125 g/ha): 8 | Rape plant response rating (rape; [2]): 10 | Rape plant response rating (rape; [3]): 10 | Rape plant response rating (rape; [4]): 1 | Rape plant response rating (rape; [5]): 3 | Plant response rating, Rape (rape; [6]): 7 | Soybean plant response rating (soybean; [1]): 0 | Soybean plant response rating (0 to 10 scale) (soybean; Preemergence, Rate 125 g/ha): 0 | Soybean plant response rating (soybean; [2]): 6 | Soybean plant response rating (soybean; [3]): 7 | Soybean plant response rating (soybean; [5]): 6 | Plant response rating, Soybean (soybean; [6]): 6 | Sugarbeets plant response rating (sugar beet; [1]): 3 | Sugarbeets plant response rating (0 to 10 scale) (sugar beet; Preemergence, Rate 125 g/ha): 8 | Sugarbeets plant response rating (sugar beet; [2]): 9 | Sugarbeets plant response rating (sugar beet; [3]): 10 | Sugarbeets plant response rating (sugar beet; [4]): 2 | Sugarbeets plant response rating (sugar beet; [5]): 3 | Plant response rating, Sugarbeets (sugar beet; [6]): 4 | Velvetleaf plant response rating (velvetleaf; [1]): 6 | Velvetleaf plant response rating (0 to 10 scale) (velvetleaf; Preemergence, Rate 125 g/ha): 7 | Velvetleaf plant response rating (velvetleaf; [2]): 8 | Velvetleaf plant response rating (velvetleaf; [3]): 8 | Velvetleaf plant response rating (velvetleaf; [4]): 0 | Velvetleaf plant response rating (velvetleaf; [5]): 0 | Plant response rating, Velvetleaf (velvetleaf; [6]): 6 | Wheat plant response rating (wheat; [1]): 3 | Wheat plant response rating (0 to 10 scale) (wheat; Preemergence, Rate 125 g/ha): 7 | Wheat plant response rating (wheat; [2]): 8 | Wheat plant response rating (wheat; [3]): 8 | Wheat plant response rating (wheat; [4]): 0 | Wheat plant response rating (wheat; [5]): 3 | Plant response rating, Wheat (wheat; [6]): 6 | Wild oats plant response rating (wild oat; [1]): 2 | Wild oats plant response rating (0 to 10 scale) (wild oat; Preemergence, Rate 125 g/ha): 7 | Wild oats plant response rating (wild oat; [2]): 8 | Wild oats plant response rating (wild oat; [3]): 8 | Wild oats plant response rating (wild oat; [4]): 0 | Wild oats plant response rating (wild oat; [5]): 0 | Plant response rating, Wild oats (wild oat; [6]): 3 | Nutsedge plant response rating (purple nutsedge; [1]): 0 | Nutsedge plant response rating (0 to 10 scale) (purple nutsedge; Preemergence, Rate 125 g/ha): 0 | Nutsedge plant response rating (purple nutsedge; [4]): 0 | Nutsedge plant response rating (purple nutsedge; [5]): 0 | Plant response rating, Nutsedge (purple nutsedge; [6]): 0 | Rice plant response rating (rice; [8]): 0 | Rice plant response rating (rice; [9]): 0 | Rice plant response rating (rice; [10]): 0 | Rice plant response rating (rice; [11]): 0 | S. Flatsedge plant response rating (smallflower flatsedge; [8]): 0 | S. Flatsedge plant response rating (smallflower flatsedge; [9]): 0 | S. Flatsedge plant response rating (smallflower flatsedge; [10]): 0 | S. Flatsedge plant response rating (smallflower flatsedge; [11]): 0 | Ducksalad plant response rating (duck salad; [8]): 0 | Ducksalad plant response rating (duck salad; [9]): 0 | Ducksalad plant response rating (duck salad; [10]): 0 | Ducksalad plant response rating (duck salad; [11]): 0
